The values that follow come from patent US4346103A, “Treatment for arthritis and substances for use in such treatment” (priority 1976, dated 1982).

The structures appear in SMILES notation.

A short description of data set [1]: clinical trials in MS and ALS patients. Format: in vivo, human. To be noted: patients suffering from MS and ALS. The source says: Clinical trials are being carried out in which patients suffering from MS and ALS are being treated with diacetylrhein.
Data set [2] in a line: acute toxicity trial in mice. In kind it is in vivo. Conditions: 26 mice; doses up to about 3000 mg per kg per day. As to the method:
In an acute toxicity trial, 1,8-diacetoxy-3-carboxyanthraquinone (diacetylrhein) was administered to 26 mice in doses of up to about 3000 mg per kg per day.

Data set [3] in a line: treatment of an ALS patient. Conditions: one patient, fairly advanced stage; six months; daily doses increasing up to 150 mg. Format: in vivo, human. As for the experimental part: A human patient suffering from ALS in a fairly advanced stage was treated with diacetylrhein over a period of six months. The diacetylrhein was ingested in daily doses increasing up to 150 mg daily.

Data set [4] can be described thus: treatment of patients with rheumatoid arthritis of the hands. In kind it is in vivo, human. Conditions: three cases; 50 mg twice daily for between five and ten days. As for the experimental part:
In three cases, patients with rheumatoid arthritis of the hands, having swollen fingers and painful joints, were treated with 50 mg of diacetylrhein, twice daily for between five and ten days.

The nature of the next data set: treatment of MS patients. To be noted: four human patients; two daily doses of 50 mg, ingested. Format: in vivo. As for the experimental part:
Four human patients suffering from MS were treated with diacetylrhein. They were treated by ingesting two daily doses of 50 mg diacetylrhein.

A short description of data set [5]: human ingestion of diacetylrhein for 15 months, side effects. Format: in vivo. Conditions: about 100 mg per day. As for the experimental part: (§1) A human patient having severe osteoarthritis (established by X-ray, CSF and rheumatoid factor assessments) across the lower back was treated with diacetylrhein. The patient had greatly restricted torsal rotation and a notable pain in their back and legs after remaining seated for 30 to 60 minutes. The patient was treated by ingesting two daily doses of 50 mg of diacetylrhein.

Data set [6] in a line: treatment of osteoarthritis patients. Conditions: one patient, severe osteoarthritis across lower back. In kind it is in vivo, human. As for the experimental part: as §1
The nature of data set [7]: clinical tests on arthritis patients. Format: in vivo, human. The source says: Clinical tests have been carried out on arthritis patients with extremely encouraging results.
A short description of data set [8]: side effects in all clinical trials to date. In kind it is in vivo, human. An excerpt: In all clinical trials carried out to date with diacetylrhein side effects have been unsignificant.
The conditions of data set [9]: cited from earlier work.
For data set [10], the system named is NADH-dehydrogenase complex. Conditions: interferes with redox function of NADH-dehydrogenase complex, thus mitochondrial oxidations; cited from earlier work.
A short description of data set [11]: adhesion to intestinal mucosa / absorption. In kind it is in vivo. Conditions: rhein found to adhere, should thus be relatively poorly absorbed.
[12] abbreviates: two daily doses of 50 mg, ingested.

Turning to `CC(=O)Oc1cccc2c1C(=O)c1c(OC(C)=O)cc(C(=O)O)cc1C2=O` [diacetylrhein, 1,8-diacetoxy-3-carboxyanthraquinone], in [1], the “results of clinical trials” value is recorded as “most encouraging”. Further, the deaths result in data set [2] is on record as “None of the mice died”. Moreover, in data set [3], the “deterioration: unsteadiness of gait and weakness of voice” value is “substantially inhibited”; the stabilisation of condition result is “substantially stabilised”. Besides, in data set [4], the “finger thickness (swelling)” value is listed as “The fingers rapidly returned to normal thickness”; the “pain in the joints” value is “the pain in the joints disappeared and was absent even when these were submitted to pressure”. The “pain and limb unsteadiness” value in the data set “treatment of MS patients” was “The pain and a large part of the limb unsteadiness disappeared within seven to ten days of initiating treatment”. The untoward effects entry in data set [5] is recorded as “No untoward effects were noted”. Besides, in data set [6] (continued treatment), the “condition with continued treatment” value is reported as “maintained their improved condition”. Moreover, in data set [6] (setting [12]), the onset of effect result was “An effect was noted on the fourth and fifth days”; the “pain, torsal rotation and early morning stiffness” value is “became pain free with restored torsal rotation and without early morning stiffness”. Moreover, the “failure to respond to treatment” value in [7] (arthritis patients) is recorded as “There has almost never been a failure to respond to this treatment”. The “need for Charnley Hip Operation” value in data set [7] (patients with arthritis of the hip) is given as “sufficient progress for this to be unnecessary”. Besides, in data set [8] (all clinical trials carried out to date), the side effects entry is “unsignificant”. Besides, in data set [8] (all clinical trials to date, eliminated by reducing the dosage), the “only side effect encountered” value is “some diarrhoea”.
For the compound `O=C(O)c1cc(O)c2c(c1)C(=O)c1cccc(O)c1C2=O` [Rhein, 1,8-dihydroxyanthra-quinone-3-carboxylic acid], the toxicity result in [9] (oral ingestion) was “relatively non-toxic”. In addition, the “side-effects on long-term intake” value in data set [9] (taken for long periods of time, in the dosage required) is “without any apparent side-effects”. The “inhibition of NADH-linked oxidation” value in [10] is “inhibitor of NADH-linked oxidation”. In addition, in data set [11], the “adhesion to the intestinal mucosa” value is given as “adheres strongly to the intestinal mucosa”.
